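48-hour exposure; five concentrations; linearly interpolated endpoints. TGI: concentration producing complete growth inhibition.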
Columns and labels:
Assay in all cases: DTP human tumour cell line panel, 48 h
[1] = test system: A549 NSCLC
[2] = test system: K-562 leukemia
[3] = test system: SW-620 colon
[4] = test system: SNB-75 CNS
[5] = test system: RXF 393 renal
[6] = test system: HT29 colon
[7] = test system: EKVX NSCLC
[8] = test system: OVCAR-4 ovarian
[9] = test system: IGROV1 ovarian
[10] = test system: UACC-257 melanoma
[11] = test system: NCI-H226 lung
[12] = test system: LOX IMVI melanoma
[13] = test system: TK-10 renal
[14] = test system: MALME-3M melanoma
[15] = test system: A498 renal
[16] = test system: OVCAR-8 ovarian
[17] = test system: 786-0 renal
[18] = test system: HCT-116 colon
[19] = test system: CAKI-1 renal
[20] = test system: MCF7 breast
[21] = test system: SK-OV-3 ovarian
[22] = test system: OVCAR-5 ovarian
[23] = test system: UACC-62 melanoma
[24] = test system: SK-MEL-5 melanoma
[25] = test system: DU-145 prostate
[26] = test system: OVCAR-3 ovarian
[27] = test system: HOP-92 NSCLC
[28] = test system: CCRF-CEM leukemia
[29] = test system: T-47D breast
[30] = test system: NCI/ADR-RES ovarian
[31] = test system: HS 578T breast
[32] = test system: MDA-N
[33] = test system: KM12 colon
[34] = test system: SF-268 CNS
[35] = test system: COLO 205 colon
[36] = test system: BT-549 breast
[37] = test system: NCI-H522 lung
[38] = test system: SR leukemia
[39] = test system: SN12C renal
[40] = test system: ACHN renal
[41] = test system: PC-3 prostate
[42] = test system: SF-295 CNS
[43] = test system: MDA-MB-435
[44] = test system: HCT-15 colon
[45] = test system: HOP-62 NSCLC
[46] = test system: UO-31 renal
[47] = test system: SNB-19 CNS
[48] = test system: HL-60(TB) leukemia
[49] = test system: RPMI-8226 leukemia
[50] = test system: U251 CNS
[51] = test system: MDA-MB-231 breast
[52] = test system: SK-MEL-2 melanoma
[53] = test system: HCC-2998 colon
[54] = test system: NCI-H23 lung
[55] = test system: NCI-H460 lung
[56] = test system: M14 melanoma
[57] = test system: SK-MEL-28 melanoma
[58] = test system: SF-539 CNS
[59] = test system: MOLT-4 leukemia

Structure (SMILES): O=[N+]([O-])c1cc([As](Br)c2ccc(O)c([N+](=O)[O-])c2)ccc1O
- TGI [1]: 7.02 µM
- TGI [2]: > 23.2 µM
- TGI [3]: 3.56 µM
- TGI [4]: 3.62 µM
- TGI [5]: 3.22 µM
- TGI [6]: 25 µM
- TGI [7]: 3.86 µM
- TGI [8]: 3.28 µM
- TGI [9]: 3.6 µM
- TGI [10]: 3.33 µM
- TGI [11]: 3.21 µM
- TGI [12]: 3.96 µM
- TGI [13]: 3.14 µM
- TGI [14]: 2.38 µM
- TGI [15]: 3.74 µM
- TGI [16]: 3.21 µM
- TGI [17]: 4.36 µM
- TGI [18]: 5.54 µM
- TGI [19]: 3.42 µM
- TGI [20]: > 20.8 µM
- TGI [21]: 9.71 µM
- TGI [22]: 4.2 µM
- TGI [23]: 3 µM
- TGI [24]: 3.1 µM
- TGI [25]: 4.59 µM
- TGI [26]: 3.53 µM
- TGI [27]: 2.96 µM
- TGI [28]: 0.436 µM
- TGI [29]: 0.557 µM
- TGI [30]: 8.81 µM
- TGI [31]: 5.93 µM
- TGI [32]: 3.4 µM
- TGI [33]: 4.06 µM
- TGI [34]: 5.59 µM
- TGI [35]: 3.25 µM
- TGI [36]: 3.84 µM
- TGI [37]: 0.45 µM
- TGI [38]: 0.566 µM
- TGI [39]: 3.3 µM
- TGI [40]: 3.77 µM
- TGI [41]: 3.64 µM
- TGI [42]: 3.61 µM
- TGI [43]: 3.51 µM
- TGI [44]: > 20.8 µM
- TGI [45]: 4.87 µM
- TGI [46]: 3.23 µM
- TGI [47]: 3.72 µM
- TGI [48]: 4.63 µM
- TGI [49]: 1.28 µM
- TGI [50]: 4.47 µM
- TGI [51]: 3.11 µM
- TGI [52]: 2.59 µM
- TGI [53]: 2.72 µM
- TGI [54]: 4.37 µM
- TGI [55]: > 25.6 µM
- TGI [56]: 4.33 µM
- TGI [57]: 3.31 µM
- TGI [58]: 3.93 µM

Structure (SMILES): N#CC1=C(N)N(/N=C/c2ccccc2)C(c2ccccc2)C1(C#N)C#N (stereo not given)
- TGI [1]: 43.1 µM
- TGI [2]: > 26 µM
- TGI [3]: 14.5 µM
- TGI [4]: 31.6 µM
- TGI [5]: 9.83 µM
- TGI [6]: 15.7 µM
- TGI [7]: 38.3 µM
- TGI [8]: 28.5 µM
- TGI [9]: 29.1 µM
- TGI [10]: 23.4 µM
- TGI [11]: 37.2 µM
- TGI [12]: 14.6 µM
- TGI [13]: 16.7 µM
- TGI [14]: 4.39 µM
- TGI [15]: 29.3 µM
- TGI [16]: 38 µM
- TGI [17]: 16.1 µM
- TGI [18]: 8.13 µM
- TGI [19]: 13 µM
- TGI [20]: 58.6 µM
- TGI [21]: 26.3 µM
- TGI [22]: 39.4 µM
- TGI [23]: 29.5 µM
- TGI [24]: 30.9 µM
- TGI [25]: 30.6 µM
- TGI [26]: 17.4 µM
- TGI [27]: 6.54 µM
- TGI [28]: 6.12 µM
- TGI [29]: 24.4 µM
- TGI [30]: 54.2 µM
- TGI [31]: 66.7 µM
- TGI [32]: 30.5 µM
- TGI [33]: > 58.2 µM
- TGI [34]: 46 µM
- TGI [35]: 4.82 µM
- TGI [59]: 5.5 µM
- TGI [36]: 29.4 µM
- TGI [37]: 16.6 µM
- TGI [38]: 8.5 µM
- TGI [39]: 31 µM
- TGI [40]: 14.9 µM
- TGI [41]: 34.5 µM
- TGI [42]: 39.5 µM
- TGI [43]: 33.7 µM
- TGI [44]: 18.7 µM
- TGI [45]: 33.1 µM
- TGI [46]: 29.7 µM
- TGI [47]: > 54.6 µM
- TGI [48]: 5.47 µM
- TGI [49]: 18.5 µM
- TGI [50]: 32.6 µM
- TGI [51]: 31.4 µM
- TGI [52]: 34.9 µM
- TGI [53]: 34.9 µM
- TGI [54]: 33.5 µM
- TGI [56]: 42.8 µM
- TGI [57]: 9.91 µM
- TGI [58]: 33.9 µM

Structure (SMILES): COc1c2c(nc3ccccc13)-c1cc(C(CC(=O)OC(C)(C)C)C(=O)OC(C)C)c(CO)c(=O)n1C2 (stereo not given)
- TGI [1]: > 100 µM
- TGI [2]: > 100 µM
- TGI [3]: > 100 µM
- TGI [4]: > 100 µM
- TGI [5]: > 100 µM
- TGI [6]: > 100 µM
- TGI [7]: > 100 µM
- TGI [8]: > 100 µM
- TGI [9]: > 100 µM
- TGI [10]: > 100 µM
- TGI [11]: > 100 µM
- TGI [12]: > 100 µM
- TGI [13]: > 100 µM
- TGI [14]: > 100 µM
- TGI [15]: > 100 µM
- TGI [16]: > 100 µM
- TGI [17]: > 100 µM
- TGI [18]: > 100 µM
- TGI [19]: > 100 µM
- TGI [20]: 19.3 µM
- TGI [21]: > 100 µM
- TGI [22]: > 100 µM
- TGI [23]: 98.3 µM
- TGI [24]: > 100 µM
- TGI [25]: > 100 µM
- TGI [26]: > 100 µM
- TGI [27]: > 100 µM
- TGI [28]: > 100 µM
- TGI [29]: > 100 µM
- TGI [30]: > 100 µM
- TGI [31]: > 100 µM
- TGI [32]: > 100 µM
- TGI [33]: > 100 µM
- TGI [34]: > 100 µM
- TGI [35]: > 100 µM
- TGI [59]: > 100 µM
- TGI [36]: > 100 µM
- TGI [37]: > 100 µM
- TGI [38]: > 100 µM
- TGI [39]: > 100 µM
- TGI [40]: > 100 µM
- TGI [41]: > 100 µM
- TGI [42]: > 100 µM
- TGI [43]: > 100 µM
- TGI [44]: > 100 µM
- TGI [45]: > 100 µM
- TGI [46]: > 89.5 µM
- TGI [47]: > 100 µM
- TGI [48]: > 100 µM
- TGI [49]: > 100 µM
- TGI [50]: > 100 µM
- TGI [51]: > 100 µM
- TGI [52]: > 100 µM
- TGI [53]: > 100 µM
- TGI [54]: > 100 µM
- TGI [55]: > 86.1 µM
- TGI [56]: > 100 µM
- TGI [57]: > 100 µM
- TGI [58]: 98.4 µM

Source: PubChem BioAssay (NCI)
